Results published in patent US20240336602A1 (Katholieke Universiteit Leuven, priority 2020, published 2024).
pIC50: −log10 of the molar value.

What follows are compounds tested against T1, mouse TRPM3a2 (mTRPM3) ion channel (Mus musculus, UniProt J9SQF3) (assay: TRPM3 ion channel driven Ca2+ uptake, Fluo-4 AM assay (PS-stimulated, overexpressing flip-in HEK293 cells)). Conditions: PS (50 μM) stimulated, cpds. 400-499.
T1 construct: expressed in transfected cells; host or cells: flip-in HEK293
Format: cell-based
Experimental: In order to monitor the inhibition of the mouse TRPM3a2 (mTRPM3) ion channel by the compounds of the invention, a cellular system making use of an mTRPM3alpha2 or hTRPM3 overexpressing cell line (flip-in HEK293) was used. The TRPM3 channel was stimulated/opened with Pregnenolone sulfate (PS) (50 μM) which results in Ca^2+ influx.
For mTRPM3, the intracellular Ca^2+ was measured with a Calcium responsive dye, Fluor-4 AM ester (Invitrogen). Cells were cultured until a confluence of 80-90%, washed with Versene (Invitrogen) and detached from the surface by a short incubation with 0.05% Trypsin (Invitrogen). The trypsination process was stopped by the addition of complete cell culture medium (DMEM, glutamax, 10% FCS, NEAA, Pen-Strep). Cells were collected and resuspended in Krebs buffer without Calcium at RT.
Prior the cell seeding (±2000 cells/well into a black, 384 well plate (Greiner)) the diluted compound was added in the assay plate, together with the PS dissolved in Krebs buffer containing Calcium. […] Directly after cell addition the plates were read on an Envision fluorescence reader (Perkin Elmer) by an Excitation of 485 nm and emission at 535 nm.
Channel inhibition was calculated compared to a non-PS stimulated control versus a condition stimulated with PS (50 μM) with vehicle. The ability of the compounds of the invention to inhibit this activity was determined as: Percentage inhibition=[1-((RFU determined for sample with test compound present—RFU determined for sample with positive control inhibitor) divided by (RFU determined in the presence of vehicle—RFU determined for sample with positive control inhibitor))]*100.

T1 sequence (J9SQF3 1-1709 isoform J9SQF3-12): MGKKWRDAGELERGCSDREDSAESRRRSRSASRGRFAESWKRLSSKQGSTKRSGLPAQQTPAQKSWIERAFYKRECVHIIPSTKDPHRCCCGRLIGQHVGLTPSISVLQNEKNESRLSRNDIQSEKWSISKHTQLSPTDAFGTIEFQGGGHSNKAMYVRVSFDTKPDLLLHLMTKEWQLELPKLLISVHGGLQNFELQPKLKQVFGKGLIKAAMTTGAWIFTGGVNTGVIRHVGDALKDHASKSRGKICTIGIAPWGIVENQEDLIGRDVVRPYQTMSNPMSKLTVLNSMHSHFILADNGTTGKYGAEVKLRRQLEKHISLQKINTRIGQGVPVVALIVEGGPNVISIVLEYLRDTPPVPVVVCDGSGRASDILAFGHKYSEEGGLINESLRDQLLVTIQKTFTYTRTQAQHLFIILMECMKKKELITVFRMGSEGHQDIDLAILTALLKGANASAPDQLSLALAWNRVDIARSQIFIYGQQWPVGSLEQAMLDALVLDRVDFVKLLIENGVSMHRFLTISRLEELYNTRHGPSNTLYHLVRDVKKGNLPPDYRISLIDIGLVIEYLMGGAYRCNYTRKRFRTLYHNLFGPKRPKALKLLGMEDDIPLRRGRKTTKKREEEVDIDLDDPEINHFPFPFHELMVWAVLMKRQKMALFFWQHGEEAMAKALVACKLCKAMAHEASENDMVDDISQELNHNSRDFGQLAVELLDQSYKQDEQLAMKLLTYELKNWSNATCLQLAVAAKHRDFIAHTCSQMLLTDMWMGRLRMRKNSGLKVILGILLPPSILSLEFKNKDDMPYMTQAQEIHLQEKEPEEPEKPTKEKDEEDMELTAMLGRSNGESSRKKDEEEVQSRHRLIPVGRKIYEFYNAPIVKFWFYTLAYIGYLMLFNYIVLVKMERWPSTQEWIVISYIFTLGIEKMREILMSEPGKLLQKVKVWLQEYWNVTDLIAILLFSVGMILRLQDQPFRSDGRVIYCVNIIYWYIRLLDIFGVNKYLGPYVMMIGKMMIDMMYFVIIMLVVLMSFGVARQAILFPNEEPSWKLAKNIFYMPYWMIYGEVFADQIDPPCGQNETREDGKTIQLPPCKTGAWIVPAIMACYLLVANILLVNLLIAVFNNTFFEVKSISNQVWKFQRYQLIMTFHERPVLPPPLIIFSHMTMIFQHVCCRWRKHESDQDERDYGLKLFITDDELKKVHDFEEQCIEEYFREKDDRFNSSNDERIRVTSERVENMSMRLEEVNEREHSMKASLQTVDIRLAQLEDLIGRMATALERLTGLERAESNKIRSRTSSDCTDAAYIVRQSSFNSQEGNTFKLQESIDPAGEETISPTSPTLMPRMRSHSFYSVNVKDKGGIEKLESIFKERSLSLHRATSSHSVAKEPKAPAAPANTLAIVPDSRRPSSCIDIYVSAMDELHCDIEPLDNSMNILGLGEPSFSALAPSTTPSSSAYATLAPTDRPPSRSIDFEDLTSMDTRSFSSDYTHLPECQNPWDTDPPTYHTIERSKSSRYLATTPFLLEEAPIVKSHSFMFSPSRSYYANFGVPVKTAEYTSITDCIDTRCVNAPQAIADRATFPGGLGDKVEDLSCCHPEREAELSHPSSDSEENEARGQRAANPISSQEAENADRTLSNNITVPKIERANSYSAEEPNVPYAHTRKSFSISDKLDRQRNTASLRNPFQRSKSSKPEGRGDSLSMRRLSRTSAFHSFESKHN

Row | SMILES | pIC50
1 | Cc1ncsc1COc1ccc2oc(C)c(C(=O)NC(CO)C(=O)N(C)C)c2c1 (single isomer, unassigned) [411 - En 1] | ≥ 6.00
2 | Cc1ncc(COc2ccc3oc(C)c(C(=O)NC(CO)CN(C)C)c3c2)s1 (single isomer, unassigned) [412 - En 1] | ≥ 6.00
3 | Cc1oc2ccc(OCc3ccnn3C)cc2c1C(=O)NC(C)C(N)=O (single isomer, unassigned) [433 - En 1] | ≥ 6.00
4 | Cc1oc2ccc(OCc3cccnc3O)cc2c1C(=O)NC(C)C(N)=O (single isomer, unassigned) [436 - En 1] | ≥ 6.00
5 | COc1ncccc1COc1ccc2oc(C)c(C(=O)NC(C)C(N)=O)c2c1 (single isomer, unassigned) [437 - En 1] | ≥ 6.00
6 | Cc1ncc(COc2ccc3oc(C)c(C(=O)NC(CN(C)C4CC4)C(N)=O)c3c2)s1 (single isomer, unassigned) [445 - En 1] | ≥ 6.00
7 | Cc1ncc(COc2ccc3oc(C)c(C(=O)NC(CN(C)C4CC4)C(N)=O)c3c2)s1 (single isomer, unassigned) [445 - En 2] | 4.70 to 6.00
8 | Cc1ncsc1COc1ccc2oc(C)c(C(=O)NC(CN(C)C3CC3)C(N)=O)c2c1 (single isomer, unassigned) [446 - En 1] | ≥ 6.00
9 | Cc1ncsc1COc1ccc2oc(C)c(C(=O)NC(CN(C)C3CC3)C(N)=O)c2c1 (single isomer, unassigned) [446 - En 2] | 4.70 to 6.00
10 | Cc1ncc(COc2ccc3oc(C)c(C(=O)NC(CN(C)C)C(N)=O)c3c2)s1 (single isomer, unassigned) [449 - En 1] | ≥ 6.00
11 | Cc1ncsc1COc1ccc2oc(C)c(C(=O)NC(CN(C)C)C(N)=O)c2c1 (single isomer, unassigned) [450 - En 1] | ≥ 6.00
12 | Cc1oc2ccc(OCc3nccn3C)cc2c1C(=O)NC(CO)C(N)=O (single isomer, unassigned) [451 - En 1] | ≥ 6.00
13 | Cc1oc2ccc(OCc3nccn3C)cc2c1C(=O)NC(CO)C(N)=O (single isomer, unassigned) [451 - En 2] | 4.70 to 6.00
14 | Cc1oc2ccc(OCc3ccnn3C)cc2c1C(=O)NC(CO)C(N)=O (single isomer, unassigned) [452 - En 1] | ≥ 6.00
15 | Cc1oc2ccc(OCc3ccnn3CC(F)F)cc2c1C(=O)NC(CO)C(N)=O (single isomer, unassigned) [456 - En 1] | ≥ 6.00
16 | Cc1oc2ccc(OCc3cccnc3C(F)F)cc2c1C(=O)NC(CO)C(N)=O (single isomer, unassigned) [457 - En 1] | ≥ 6.00
17 | Cc1nc(C)c(COc2ccc3oc(C)c(C(=O)NC(CO)C(N)=O)c3c2)s1 (single isomer, unassigned) [458 - En 1] | ≥ 6.00
18 | Cc1oc2ccc(OCc3cccnc3O)cc2c1C(=O)NC(CO)C(N)=O (single isomer, unassigned) [459 - En 1] | ≥ 6.00
19 | Cc1ncccc1COc1ccc2oc(C)c(C(=O)NC(C)(CO)C(N)=O)c2c1 (single isomer, unassigned) [461 - En 1] | ≥ 6.00
20 | Cc1ncc(COc2ccc3oc(C)c(C(=O)NC(C)(CO)C(N)=O)c3c2)s1 (single isomer, unassigned) [462 - En 1] | ≥ 6.00
21 | Cc1ncsc1COc1ccc2oc(C)c(C(=O)NC(C)(CO)C(N)=O)c2c1 (single isomer, unassigned) [463 - En 2] | ≥ 6.00
22 | Cc1ccc(COc2ccc3oc(C)c(C(=O)NC(C)(CO)C(N)=O)c3c2)cn1 (single isomer, unassigned) [464 - En 1] | ≥ 6.00
23 | COCC(NC(=O)c1c(C)oc2ccc(OCc3scnc3C)cc12)C(N)=O (single isomer, unassigned) [467 - En 1] | ≥ 6.00
24 | COCC(C)(NC(=O)c1c(C)oc2ccc(OCc3scnc3C)cc12)C(N)=O (single isomer, unassigned) [468 - En 1] | ≥ 6.00
25 | Cc1ncc(COc2ccc3oc(C)c(C(=O)NC(CO)CN4CCOCC4)c3c2)s1 (single isomer, unassigned) [487 - En 1] | 4.70 to 6.00
26 | Cc1ncsc1COc1ccc2oc(C)c(C(=O)NC(CO)CN3CCOCC3)c2c1 (single isomer, unassigned) [488 - En 1] | ≥ 6.00
27 | Cc1ncsc1COc1ccc2oc(C)c(C(=O)NC(CO)CN3CCOCC3)c2c1 (single isomer, unassigned) [488 - En 2] | 4.70 to 6.00

Same assay, conditions: PS (50 μM) stimulated, cpds. 500-599

Row | SMILES | pIC50
28 | Cc1oc2ccc(OCc3cccnc3C(F)(F)F)cc2c1C(=O)NC1(CO)CCCNC1=O (single isomer, unassigned) [510 - En 1] | ≥ 6.00
29 | Cc1ncc(COc2ccc3oc(C)c(C(=O)NC4(CO)CCCNC4=O)c3c2)o1 (single isomer, unassigned) [511 - En 1] | ≥ 6.00
30 | Cc1ncc(COc2ccc3oc(C)c(C(=O)NC4(CO)CCCNC4=O)c3c2)o1 (single isomer, unassigned) [511 - En 2] | 4.70 to 6.00
31 | Cc1ncccc1COc1ccc2oc(C)c(C(=O)NC3(CO)CCCNC3=O)c2c1 (single isomer, unassigned) [512 - En 1] | ≥ 6.00
32 | Cc1ncsc1COc1ccc2oc(C)c(C(=O)NC3(CO)CCCNC3=O)c2c1 (single isomer, unassigned) [513 - En 1] | ≥ 6.00
33 | Cc1ccc(COc2ccc3oc(C)c(C(=O)NC4(CO)CCCNC4=O)c3c2)cn1 (single isomer, unassigned) [514 - En 1] | ≥ 6.00
34 | Cc1ncccc1COc1ccc2oc(C)c(C(=O)NC3(CO)CCNC3=O)c2c1 (single isomer, unassigned) [516 - En 1] | ≥ 6.00
35 | Cc1ncsc1COc1ccc2oc(C)c(C(=O)NC3(CO)CCNC3=O)c2c1 (single isomer, unassigned) [518 - En 1] | ≥ 6.00
36 | Cc1ccc(COc2ccc3oc(C)c(C(=O)NC4(CO)CCNC4=O)c3c2)cn1 (single isomer, unassigned) [519 - En 1] | ≥ 6.00
37 | Cc1oc2ccc(OCc3ccccn3)cc2c1C(=O)NC1(CO)CCNC1=O (single isomer, unassigned) [520 - En 1] | ≥ 6.00
38 | Cc1oc2ccc(OCc3ccccn3)cc2c1C(=O)NC1(CO)CCNC1=O (single isomer, unassigned) [520 - En 2] | ≥ 6.00
39 | Cc1oc2ccc(OCc3cccnc3O)cc2c1C(=O)NC1(CO)CCNC1=O (single isomer, unassigned) [521 - En 1] | ≥ 6.00
40 | Cc1oc2ccc(OCc3cccnc3O)cc2c1C(=O)NC1(CO)CCNC1=O (single isomer, unassigned) [521 - En 2] | 4.70 to 6.00
41 | COc1ncccc1COc1ccc2oc(C)c(C(=O)NC3(CO)CCNC3=O)c2c1 (single isomer, unassigned) [522 - En 1] | ≥ 6.00
42 | Cc1oc2ccc(OCc3cccn(C)c3=O)cc2c1C(=O)NC1CCNCC1(F)F (single isomer, unassigned) [544 - En 1] | 4.70 to 6.00
43 | Cc1oc2ccc(OCc3cccc(O)n3)cc2c1C(=O)NC1CCNCC1(F)F (single isomer, unassigned) [569 - En 1, N-(3,3-difluoropiperidin-4-yl)-2-methyl-5-((6-oxo-1,6-dihydropyridin-2-yl)methoxy)benzofuran-3-carboxamide] | 4.70 to 6.00
44 | Cc1oc2ccc(OCc3cccc(O)n3)cc2c1C(=O)NC1CCNCC1(F)F (single isomer, unassigned) [569 - En 2, N-(3,3-difluoropiperidin-4-yl)-2-methyl-5-((6-oxo-1,6-dihydropyridin-2-yl)methoxy)benzofuran-3-carboxamide] | ≤ 4.70
